Reference: ChEMBL document CHEMBL1777748 (Bioorg Med Chem Lett, 2011)
Activity calls are given as the source filed them. The rule behind the calls is not given here.

What was measured:
[1] = Intrinsic clearance in human liver microsomes
[2] = Aqueous solubility of the compound in buffer at pH 7.4; type: physicochemical
[3] = target: T1, Prostaglandin D2 receptor 2 (Homo sapiens, UniProt Q9Y5Y4); assay: Displacement of [3H]-PGD2 from CRTh2 receptor by scintillation proximity assay
T1 sequence (Q9Y5Y4 whole entry): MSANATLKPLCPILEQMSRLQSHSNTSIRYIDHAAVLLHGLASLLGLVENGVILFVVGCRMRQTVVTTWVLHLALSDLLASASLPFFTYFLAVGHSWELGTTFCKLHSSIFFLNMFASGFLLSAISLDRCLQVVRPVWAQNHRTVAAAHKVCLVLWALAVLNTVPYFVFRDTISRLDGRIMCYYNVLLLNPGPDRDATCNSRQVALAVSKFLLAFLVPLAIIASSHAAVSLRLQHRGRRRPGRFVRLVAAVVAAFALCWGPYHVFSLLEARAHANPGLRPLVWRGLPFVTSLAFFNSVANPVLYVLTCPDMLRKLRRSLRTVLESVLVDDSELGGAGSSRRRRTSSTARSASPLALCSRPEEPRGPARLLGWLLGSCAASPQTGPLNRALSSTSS

[4] = Intrinsic clearance in rat hepatocytes assessed per 1 x 10^6 cells
[5] = Half life in iv dosed rat; conditions: in vivo
[6] = target: T1, Prostaglandin D2 receptor 2; assay: Antagonist activity at human CRTh2 receptor expressed in CHO cells assessed as inhibition of PGD2-induced calcium flux in presence of 1% bovine serum albumin; type: functional, cell-based
[7] = Oral bioavailability in rat; type: ADME, organism-based; conditions: in vivo
[8] = Fraction unbound in cynomolgus monkey plasma; type: ADME, cell-free, Macaca fascicularis
[9] = target: T2, Chemoattractant receptor-homologous molecule expressed on Th2 cells (Cavia porcellus, UniProt Q56D28); assay: Binding affinity to guinea pig CRTh2 receptor
T2 sequence (Q56D28 whole entry): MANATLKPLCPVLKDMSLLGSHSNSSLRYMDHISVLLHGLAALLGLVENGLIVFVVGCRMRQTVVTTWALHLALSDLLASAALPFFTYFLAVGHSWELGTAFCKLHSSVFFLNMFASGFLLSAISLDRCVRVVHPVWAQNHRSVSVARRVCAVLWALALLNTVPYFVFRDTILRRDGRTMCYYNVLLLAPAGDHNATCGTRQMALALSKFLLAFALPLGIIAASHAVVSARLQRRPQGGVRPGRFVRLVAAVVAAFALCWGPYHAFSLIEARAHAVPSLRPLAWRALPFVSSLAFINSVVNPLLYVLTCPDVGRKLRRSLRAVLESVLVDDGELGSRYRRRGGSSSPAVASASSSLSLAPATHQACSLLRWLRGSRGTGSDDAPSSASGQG

[10] = target: Cytochrome P450 3A4 (Homo sapiens, UniProt P08684); assay: Inhibition of CYP3A4; type: ADME
[11] = Oral bioavailability in dog; type: ADME, organism-based, Canis lupus familiaris; conditions: in vivo
[12] = target: Cytochrome P450 2C19 (Homo sapiens, UniProt P33261); assay: Inhibition of CYP2C19; type: ADME
[13] = target: Cytochrome P450 2C9 (Homo sapiens, UniProt P11712); assay: Inhibition of CYP2C9; type: ADME
[14] = target: T3, Prostaglandin D2 receptor 2 (Rattus norvegicus, UniProt Q6XKD3); assay: Binding affinity to rat CRTh2 receptor
T3 sequence (Q6XKD3 whole entry): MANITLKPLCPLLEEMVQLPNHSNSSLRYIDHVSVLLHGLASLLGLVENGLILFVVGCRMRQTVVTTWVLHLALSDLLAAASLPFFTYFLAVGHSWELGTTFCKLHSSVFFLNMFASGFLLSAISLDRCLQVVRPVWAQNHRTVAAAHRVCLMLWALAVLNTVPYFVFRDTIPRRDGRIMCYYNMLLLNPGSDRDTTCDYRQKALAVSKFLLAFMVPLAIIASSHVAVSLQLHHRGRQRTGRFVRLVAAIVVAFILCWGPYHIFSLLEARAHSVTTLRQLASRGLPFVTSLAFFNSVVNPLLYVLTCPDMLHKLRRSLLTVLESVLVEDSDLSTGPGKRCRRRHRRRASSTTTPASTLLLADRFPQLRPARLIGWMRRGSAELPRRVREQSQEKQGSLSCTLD

[15] = target: Cytochrome P450 2D6 (Homo sapiens, UniProt P10635); assay: Inhibition of CYP2D6; type: ADME
[16] = Fraction unbound in rat plasma; type: ADME, cell-free
[17] = species: Mus musculus; assay: Protection against 11 days tobacco smoke-induced mucosal damage in mouse lung assessed as inhibition of inflammatory cells accumulation; type: functional, organism-based
[18] = target: T4, Cytochrome P450 1A2 (Homo sapiens, UniProt P05177); assay: Inhibition of CYP1A2; type: ADME
T4 sequence (P05177 whole entry): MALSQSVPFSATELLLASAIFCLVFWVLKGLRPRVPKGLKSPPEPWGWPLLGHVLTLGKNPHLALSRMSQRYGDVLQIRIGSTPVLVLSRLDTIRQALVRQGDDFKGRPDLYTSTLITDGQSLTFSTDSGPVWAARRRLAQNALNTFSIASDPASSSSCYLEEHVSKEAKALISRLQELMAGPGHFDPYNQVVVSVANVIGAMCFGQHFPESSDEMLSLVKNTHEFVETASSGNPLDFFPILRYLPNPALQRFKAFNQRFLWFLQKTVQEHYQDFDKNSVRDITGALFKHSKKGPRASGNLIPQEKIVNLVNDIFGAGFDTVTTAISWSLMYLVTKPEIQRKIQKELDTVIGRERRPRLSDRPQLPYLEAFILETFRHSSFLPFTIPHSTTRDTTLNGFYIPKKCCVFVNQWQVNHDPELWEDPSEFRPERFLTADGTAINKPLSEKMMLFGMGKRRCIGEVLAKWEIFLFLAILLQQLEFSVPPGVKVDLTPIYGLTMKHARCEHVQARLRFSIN

[19] = Fraction unbound in dog plasma; type: ADME, cell-free, Canis lupus familiaris
[20] = target: T5, Prostaglandin D2 receptor 2 (Mus musculus, UniProt Q9Z2J6); assay: Binding affinity to mouse CRTh2 receptor
T5 sequence (Q9Z2J6 whole entry): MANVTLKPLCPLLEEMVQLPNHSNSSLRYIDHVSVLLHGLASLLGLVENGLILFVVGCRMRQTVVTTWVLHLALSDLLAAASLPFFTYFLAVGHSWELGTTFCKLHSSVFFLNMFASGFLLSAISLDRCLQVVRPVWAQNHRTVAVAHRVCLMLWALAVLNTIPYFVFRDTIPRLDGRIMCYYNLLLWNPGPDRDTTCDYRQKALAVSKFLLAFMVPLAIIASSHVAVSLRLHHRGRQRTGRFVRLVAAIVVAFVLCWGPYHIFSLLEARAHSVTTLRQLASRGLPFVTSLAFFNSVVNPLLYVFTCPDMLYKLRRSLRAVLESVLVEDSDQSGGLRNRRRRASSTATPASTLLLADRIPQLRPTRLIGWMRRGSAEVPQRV

[21] = Fraction unbound in human plasma; type: ADME, cell-free

Cytochrome P450 3A4, sequence (P08684 whole entry): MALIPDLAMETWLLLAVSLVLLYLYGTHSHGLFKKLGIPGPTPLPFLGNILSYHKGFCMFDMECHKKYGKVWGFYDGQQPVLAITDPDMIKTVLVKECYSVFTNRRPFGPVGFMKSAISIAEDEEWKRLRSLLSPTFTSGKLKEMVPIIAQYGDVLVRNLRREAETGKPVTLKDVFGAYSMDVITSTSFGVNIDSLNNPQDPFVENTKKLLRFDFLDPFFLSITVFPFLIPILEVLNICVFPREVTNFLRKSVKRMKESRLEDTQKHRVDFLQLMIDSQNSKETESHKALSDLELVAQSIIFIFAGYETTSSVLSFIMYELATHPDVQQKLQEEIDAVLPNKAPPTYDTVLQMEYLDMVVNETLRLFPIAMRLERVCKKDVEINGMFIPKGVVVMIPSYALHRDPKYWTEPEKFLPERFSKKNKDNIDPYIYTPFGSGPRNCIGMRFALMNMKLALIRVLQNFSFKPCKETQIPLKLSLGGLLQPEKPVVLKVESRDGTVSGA
Cytochrome P450 2C19, sequence (P33261 whole entry): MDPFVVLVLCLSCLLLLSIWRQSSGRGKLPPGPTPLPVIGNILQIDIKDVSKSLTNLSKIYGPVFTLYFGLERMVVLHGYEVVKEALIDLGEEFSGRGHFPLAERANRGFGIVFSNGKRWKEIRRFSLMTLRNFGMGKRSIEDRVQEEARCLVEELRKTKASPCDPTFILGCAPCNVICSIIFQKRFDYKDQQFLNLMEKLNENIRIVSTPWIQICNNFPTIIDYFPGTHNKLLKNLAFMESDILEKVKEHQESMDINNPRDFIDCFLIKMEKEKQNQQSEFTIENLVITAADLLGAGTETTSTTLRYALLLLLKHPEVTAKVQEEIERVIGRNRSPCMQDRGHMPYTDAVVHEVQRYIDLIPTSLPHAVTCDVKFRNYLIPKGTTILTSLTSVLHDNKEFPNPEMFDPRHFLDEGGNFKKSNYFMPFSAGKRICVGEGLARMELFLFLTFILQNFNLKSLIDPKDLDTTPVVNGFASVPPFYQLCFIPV
Cytochrome P450 2D6, sequence (P10635 whole entry): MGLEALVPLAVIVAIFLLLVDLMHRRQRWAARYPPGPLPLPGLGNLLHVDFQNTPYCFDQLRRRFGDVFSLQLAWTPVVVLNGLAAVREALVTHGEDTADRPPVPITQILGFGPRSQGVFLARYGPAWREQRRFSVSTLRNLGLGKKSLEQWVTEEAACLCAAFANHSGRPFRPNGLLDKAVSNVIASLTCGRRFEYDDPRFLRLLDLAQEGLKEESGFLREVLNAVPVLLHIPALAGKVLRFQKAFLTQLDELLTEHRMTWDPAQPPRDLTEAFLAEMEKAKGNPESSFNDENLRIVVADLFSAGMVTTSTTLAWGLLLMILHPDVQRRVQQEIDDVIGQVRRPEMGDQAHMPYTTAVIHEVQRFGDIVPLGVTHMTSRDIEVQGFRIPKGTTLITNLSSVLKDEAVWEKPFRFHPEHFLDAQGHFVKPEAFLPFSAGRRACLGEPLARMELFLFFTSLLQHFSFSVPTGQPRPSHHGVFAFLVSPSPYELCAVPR
Cytochrome P450 2C9, sequence (P11712 whole entry): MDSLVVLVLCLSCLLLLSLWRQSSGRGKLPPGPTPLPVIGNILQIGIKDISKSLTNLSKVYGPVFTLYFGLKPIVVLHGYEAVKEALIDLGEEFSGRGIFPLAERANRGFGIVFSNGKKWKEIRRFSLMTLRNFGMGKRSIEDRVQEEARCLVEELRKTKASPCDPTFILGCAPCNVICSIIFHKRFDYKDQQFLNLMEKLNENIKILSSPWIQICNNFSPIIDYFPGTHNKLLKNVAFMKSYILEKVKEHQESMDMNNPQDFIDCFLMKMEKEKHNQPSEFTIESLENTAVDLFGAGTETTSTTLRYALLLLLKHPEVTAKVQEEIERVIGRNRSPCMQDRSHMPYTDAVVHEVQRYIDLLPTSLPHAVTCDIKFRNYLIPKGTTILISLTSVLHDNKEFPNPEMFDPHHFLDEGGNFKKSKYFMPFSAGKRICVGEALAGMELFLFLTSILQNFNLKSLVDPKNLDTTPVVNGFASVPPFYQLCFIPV

Q: With `O=C(O)COc1ccc(C(F)(F)F)cc1-c1ccccc1` as the compound, how does the microsomal CLint ([1]; liver microsomes) read?
A: The microsomal CLint was under 3 µL/min/mg.

Q: What about the solubility [2] of the same compound?
A: The solubility was over 80 µM.

Q: What about the IC50 [3] of the same compound?
A: Its IC50 is 45 nM.

Q: And the hepatocyte CLint [4]?
A: The hepatocyte CLint was 3 µL/min/1e6 cells.

Q: Which microsomal CLint ([1]; microsomes) does the source give for `N#Cc1cccc(-c2cc(Cl)ccc2OCC(=O)O)c1` here?
A: Its microsomal CLint is under 3 µL/min/mg.

Q: What about the half-life [5] of the same compound?
A: Its half-life is 2.3 h.

Q: And the IC50 [6]?
A: Its IC50 is 10 nM.

Q: And the bioavailability [7]?
A: The bioavailability was 96%.

Q: And the IC50 [3]?
A: Its IC50 is 1.7 nM.

Q: And the hepatocyte CLint [4]?
A: The hepatocyte CLint was 5 µL/min/1e6 cells.

Q: With `CCS(=O)(=O)c1ccc(-c2cc(C(F)(F)F)ccc2OCC(=O)O)c(C)c1` as the compound, how does the fraction unbound [8] read?
A: Its fraction unbound is 0.026.

Q: And the IC50 [9]?
A: The IC50 was 63 nM.

Q: What about the IC50 [10] of the same compound?
A: Its IC50 is over 50000 nM.

Q: And the bioavailability [11]?
A: The bioavailability was 46%.

Q: What about the IC50 [12] of the same compound?
A: Its IC50 is over 50000 nM.

Q: And the IC50 [13]?
A: Its IC50 is over 50000 nM.

Q: What about the IC50 [6] of the same compound?
A: Its IC50 is 29 nM.

Q: What about the IC50 [14] of the same compound?
A: The IC50 was 1.3 nM.

Q: And the IC50 [15]?
A: Its IC50 is over 50000 nM.

Q: And the fraction unbound [16]?
A: Its fraction unbound is 0.056.

Q: What about the Activity [17] of the same compound?
A: The Activity was “Active”.

Q: What about the IC50 [18] of the same compound?
A: Its IC50 is over 50000 nM.

Q: What about the bioavailability [7] of the same compound?
A: The bioavailability was 42%.

Q: And the fraction unbound [19]?
A: The fraction unbound was 0.03.

Q: What about the IC50 [20] of the same compound?
A: Its IC50 is 1 nM.

Q: And the fraction unbound [21]?
A: The fraction unbound was 0.046.

Q: What about the IC50 [3] of the same compound?
A: Its IC50 is 0.9 nM.
